In one data set the test system is intestinal membranes. To be noted: Tagesson et al., Gut 26:369 (1985); cited from earlier work.
The next data set concerns P388 mouse leukemia. Nature of the data set: P388 mouse leukemia model, survival time. Type of data set: in vivo. To be noted: 1.25 mg/kg intraperitoneally on Study Day-1; female mice inoculated with P388 on Day-0. How it is done:
The P388 mouse leukemia model was prepared according to the method described by Daoud and Juliano in Cancer Res. 48: 5518 (1986). Female mice were intraperitoneally inoculated with P388 mouse leukemia (1 million cells/0.1 ml) on Study Day-0. The study drugs were intraperitoneally injected on Study Day-1. […]

“sn-1-acyl-3-glycerophosphorylcholine [lyso-PC]”: the “concentration inducing histopathological damage to intestinal membranes” value in the data set on intestinal membranes is on record as 0.01-1 mM.

Turning to `CC[C@]1(O)C[C@H]2CN(CCc3c([nH]c4ccccc34)[C@@](C(=O)OC)(c3cc4c(cc3OC)N(C=O)[C@H]3[C@@](O)(C(=O)OC)[C@H](OC(C)=O)[C@]5(CC)C=CCN6CC[C@]43[C@@H]65)C2)C1` [Vincristin, vincristin], the “MEAN SURVIVAL TIME” value in the data set with P388 mouse leukemia was found to be 21.2 days.
